In ChEMBL document CHEMBL4400537, “Virtual Screening Identifies Irreversible FMS-like Tyrosine Kinase 3 Inhibitors with Activity toward Resistance-Conferring Mutations” (J Med Chem, 2019):
Each block holds one molecule with its values, some of them ahead of it. Calls of active or inactive are those of the source. The rule behind the calls is not given here.

How the values were obtained:
MV4-11 [1] = experiment: cells; details: Homo sapiens, MV4-11, 72 h
[2] = system: T1, Receptor-type tyrosine-protein kinase FLT3 (Homo sapiens), P36888 [D835Y]; experiment: Inhibition of covalent binding of (Z)-N-(2-(2-(4-(2,8-Diethyl-5,5-difluoro-1,3,7,9-tetramethyl-5H-4lambda4,5lambda4-dipyrrolo[1,2-c:2',1'-f ][1,3,2]diazaborinin-10-yl)phenoxy)-acetamido)ethyl)-2,4-dimethyl-5-((2-oxo-5-(vinylsulfon-amido)-indolin-3-ylidene)methyl)-1H-pyrrole-3-carboxamide to recombinant human FLT3 D835Y mutant (571 to 993 residues) expressed in baculovirus expression system at […] by Western blot analysis
T1 sequence (whole entry): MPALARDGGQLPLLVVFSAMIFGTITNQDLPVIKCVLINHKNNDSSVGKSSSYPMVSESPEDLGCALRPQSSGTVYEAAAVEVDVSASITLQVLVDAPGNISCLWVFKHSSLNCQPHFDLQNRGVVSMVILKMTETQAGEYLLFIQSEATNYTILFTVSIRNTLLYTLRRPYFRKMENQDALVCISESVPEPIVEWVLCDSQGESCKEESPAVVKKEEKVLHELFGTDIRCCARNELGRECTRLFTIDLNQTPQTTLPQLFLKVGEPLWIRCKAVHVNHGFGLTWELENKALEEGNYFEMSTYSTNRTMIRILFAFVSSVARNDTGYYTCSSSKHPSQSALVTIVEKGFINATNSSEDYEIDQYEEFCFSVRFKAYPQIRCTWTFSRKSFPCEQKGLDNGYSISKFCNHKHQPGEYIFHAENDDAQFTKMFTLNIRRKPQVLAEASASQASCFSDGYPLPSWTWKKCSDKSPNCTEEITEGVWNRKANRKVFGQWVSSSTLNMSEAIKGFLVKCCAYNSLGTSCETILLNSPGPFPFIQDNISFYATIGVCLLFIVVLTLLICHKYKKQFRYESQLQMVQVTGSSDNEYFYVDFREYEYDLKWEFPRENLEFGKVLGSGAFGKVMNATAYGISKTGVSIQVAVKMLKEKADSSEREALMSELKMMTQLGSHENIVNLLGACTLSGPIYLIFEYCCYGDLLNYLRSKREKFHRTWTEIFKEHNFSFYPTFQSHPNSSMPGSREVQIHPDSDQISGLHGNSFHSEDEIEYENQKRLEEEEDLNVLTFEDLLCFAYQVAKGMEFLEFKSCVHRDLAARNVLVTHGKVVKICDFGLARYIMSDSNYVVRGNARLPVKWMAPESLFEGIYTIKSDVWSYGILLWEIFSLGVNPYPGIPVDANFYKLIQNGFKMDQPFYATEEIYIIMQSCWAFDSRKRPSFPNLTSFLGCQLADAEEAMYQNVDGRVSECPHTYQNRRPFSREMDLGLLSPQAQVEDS

[3] = Toxicity in zebrafish embryo assessed as mortality at 10 uM measured 120 hpf by fluorescence microscopy; set-up: species or system Danio rerio; details: in vivo
Jurkat = experiment: cells; details: Homo sapiens, 72 h
physchem = details: potassium phosphate buffer with reduced glutathione
MOLM-14 = experiment: cells; details: Homo sapiens, MOLM-14, 72 h
THP-1 = experiment: cells; details: Homo sapiens, THP-1, 72 h
[4] = system: T1, Receptor-type tyrosine-protein kinase FLT3 (Homo sapiens), P36888 [D835Y]; experiment: Covalent binding affinity to recombinant human FLT3 D835Y mutant (571 to 993 residues) expressed in baculovirus expression system at 50 uM by Western blot analysis
[5] = system: T1, Receptor-type tyrosine-protein kinase FLT3 (Homo sapiens), P36888 [D835Y]; experiment: Irreversible inhibition of recombinant human FLT3 D835Y mutant (571 to 993 residues) expressed in baculovirus expression system at 1 uM preincubated for 5 to 30 mins followed by myelobasic protein addition measured after 120 mins using BODIPY-tagged compounds in presence of ATP by ADP-Glo assay relative to control
[6] = system: T1, Receptor-type tyrosine-protein kinase FLT3 (Homo sapiens), P36888 [D835Y]; experiment: Covalent binding affinity to recombinant human FLT3 D835Y mutant (571 to 993 residues) expressed in baculovirus expression system at 100 uM by Western blot analysis
[7] = Drug uptake in zebrafish embryo gastrointestine at 10 uM starting 1 dpf and measured at 4 dpf by fluorescence microscopy; type: ADME, Danio rerio, Gastrointestinal tract; details: in vivo
MV4-11 [8] = experiment: Cytotoxicity in human MV4-11 cells assessed as inhibition of cellular viability at 0.5 to 5000 nM incubated for 2 to 8 hrs followed by compound washout by CellTiter-Glo luminescent assay; type: functional, cell-based
[9] = target: Glycogen synthase kinase-3 alpha (Homo sapiens) (UniProt P49840); experiment: Inhibition of human N-terminal His-tagged GSK3alpha expressed in baculovirus expression system at 1 uM relative to control
[10] = target: Glycogen synthase kinase-3 beta (Homo sapiens) (UniProt P49841); experiment: Inhibition of human N-terminal His-tagged GSK3beta expressed in baculovirus expression system at 1 uM relative to control
Chain of Glycogen synthase kinase-3 beta (Homo sapiens) (P49841 whole entry, looked up): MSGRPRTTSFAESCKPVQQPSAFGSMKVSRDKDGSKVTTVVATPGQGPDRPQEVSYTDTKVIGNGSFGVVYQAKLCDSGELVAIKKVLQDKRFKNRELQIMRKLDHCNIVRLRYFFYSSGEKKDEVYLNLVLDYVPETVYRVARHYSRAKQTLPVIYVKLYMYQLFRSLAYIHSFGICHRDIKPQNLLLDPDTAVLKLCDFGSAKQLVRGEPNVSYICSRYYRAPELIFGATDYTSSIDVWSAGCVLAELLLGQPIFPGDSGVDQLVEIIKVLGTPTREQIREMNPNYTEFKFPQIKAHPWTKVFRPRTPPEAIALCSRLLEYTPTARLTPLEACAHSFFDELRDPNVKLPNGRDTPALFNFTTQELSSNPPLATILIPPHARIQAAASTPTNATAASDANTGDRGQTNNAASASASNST

Chain of Glycogen synthase kinase-3 alpha (Homo sapiens) (P49840 2-483 limits assumed): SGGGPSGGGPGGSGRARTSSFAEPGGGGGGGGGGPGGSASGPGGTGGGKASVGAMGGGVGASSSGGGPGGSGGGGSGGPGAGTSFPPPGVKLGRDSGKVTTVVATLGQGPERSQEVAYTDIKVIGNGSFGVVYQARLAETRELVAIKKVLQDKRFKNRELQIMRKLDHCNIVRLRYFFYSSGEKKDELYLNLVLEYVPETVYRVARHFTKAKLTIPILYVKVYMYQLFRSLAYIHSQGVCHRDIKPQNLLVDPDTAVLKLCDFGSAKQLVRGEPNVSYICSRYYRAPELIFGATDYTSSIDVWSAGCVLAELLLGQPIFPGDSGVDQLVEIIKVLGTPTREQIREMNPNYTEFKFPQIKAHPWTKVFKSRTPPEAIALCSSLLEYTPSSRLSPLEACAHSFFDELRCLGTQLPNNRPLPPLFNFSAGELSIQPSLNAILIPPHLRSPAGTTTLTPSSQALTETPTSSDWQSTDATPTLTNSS

Structure (SMILES): CCN(CC)CCNC(=O)c1c(C)[nH]c(/C=C2\C(=O)Nc3ccc(NS(=O)(=O)CC)cc32)c1C
IC50 (MV4-11 [1]): 643 nM

Structure (SMILES): O=C(O)Cc1c[nH]c2ccccc12
inhibition [2]: Active

Structure (SMILES): C#CC(=O)Nc1ccc2c(c1)/C(=C/c1ccc[nH]1)C(=O)N2
IC50 (MV4-11 [1]): 709 nM

Structure (SMILES): C=CS(=O)(=O)Nc1ccc2c(c1)/C(=C/c1ccc[nH]1)C(=O)N2
IC50 (MV4-11 [1]): 67 nM

Structure (SMILES): CC(=O)Nc1ccc2c(c1)/C(=C/c1ccc[nH]1)C(=O)N2
IC50 (MV4-11 [1]): > 1 nM | Activity [3]: Non-Toxic

Structure (SMILES): CCN(CC)CCNC(=O)c1c(C)[nH]c(/C=C2\C(=O)Nc3ccc(NC(=O)CCl)cc32)c1C
IC50 (MV4-11 [1]): 21 nM | IC50 (Jurkat): > 1000 nM | half-life at 10 µM (physchem): 3.63 h | Activity [3]: Non-Toxic | IC50 (MOLM-14): 26.4 nM | IC50 (THP-1): > 1000 nM

Structure (SMILES): CCC(=O)Nc1ccc2c(c1)/C(=C/c1ccc[nH]1)C(=O)N2
IC50 (MV4-11 [1]): > 1 nM

Structure (SMILES): O=C(CF)Nc1ccc2c(c1)/C(=C/c1ccc[nH]1)C(=O)N2
IC50 (MV4-11 [1]): 845 nM | half-life at 10 µM (physchem): > 24 h | Activity [3]: Toxic

Structure (SMILES): C=CC(=O)Nc1ccc2c(c1)/C(=C/c1ccc[nH]1)C(=O)N2
IC50 (MV4-11 [1]): > 1 nM

Structure (SMILES): COc1cc(O)c2c(c1)[C@H]1O[C@@H]1C[C@H](O)[C@H](O)C(=O)/C=C\C[C@H](C)OC2=O [HYPOTHEMYCIN]
IC50 (MV4-11 [1]): 15 nM | IC50 (Jurkat): > 1000 nM | Activity [3]: Toxic | IC50 (THP-1): > 1000 nM

Structure (SMILES): c1ccc(-c2cnc3[nH]cc(-c4ccccc4)c3c2)cc1
IC50 (MV4-11 [1]): > 1 nM

Structure (SMILES): c1ccc(-c2cnc3ccccn23)cc1
IC50 (MV4-11 [1]): > 1 nM

Structure (SMILES): O=C(CBr)Nc1ccc2c(c1)/C(=C/c1ccc[nH]1)C(=O)N2
IC50 (MV4-11 [1]): 653 nM | Activity [3]: Toxic

Structure (SMILES): CC(=O)Nc1ccc2c(c1)/C(=C/c1[nH]c(C)c(C(=O)NCCNC(=O)CCc3ccc4n3[B-](F)(F)[N+]3=C(C)C=C(C)C3=C4)c1C)C(=O)N2
Activity [4]: inactive | inhibition [5]: 23% | Activity [6]: inactive

Structure (SMILES): O=C1Nc2ccccc2/C1=C/c1ccccc1
IC50 (MV4-11 [1]): > 1 nM

Structure (SMILES): C=CS(=O)(=O)Nc1ccc2c(c1)/C(=C/c1[nH]c(C)c(C(=O)NCCNC(=O)COc3ccc(C4=C5C(C)=C(CC)C(C)=[N+]5[B-](F)(F)n5c(C)c(CC)c(C)c54)cc3)c1C)C(=O)N2
Activity [4]: Active | inhibition [5]: 89% | Drug uptake [7]: Active | Activity [6]: Active

Structure (SMILES): CCN(CC)CCNC(=O)c1c(C)[nH]c(/C=C2\C(=O)Nc3ccc(NC(C)=O)cc32)c1C
IC50 (MV4-11 [1]): > 1000 nM

Structure (SMILES): CCS(=O)(=O)Nc1ccc2c(c1)/C(=C/c1ccc[nH]1)C(=O)N2
IC50 (MV4-11 [1]): > 1 nM

Structure (SMILES): CC1(COc2ccc3c(c2)ncn3-c2ccc3cccc(N4CCC(N)CC4)c3n2)COC1 [CRENOLANIB]
IC50 (MV4-11 [1]): 12 nM | IC50 (Jurkat): > 1000 nM | Activity (MV4-11 [8]): Active | Activity [3]: Toxic | IC50 (THP-1): > 1000 nM

Structure (SMILES): O=C1Nc2ccccc2/C1=C/c1ccc[nH]1
inhibition [9]: 12% | inhibition [10]: -6%

Structure (SMILES): CC1=CC(C)=[N+]2C1=Cc1ccc(CCC(=O)NCCNC(=O)c3c(C)[nH]c(/C=C4\C(=O)Nc5ccc(NC(=O)CCl)cc54)c3C)n1[B-]2(F)F
Activity [4]: Active | inhibition [5]: 55% | Drug uptake [7]: Active

Structure (SMILES): O=C(CCl)Nc1ccc2c(c1)/C(=C/c1ccc[nH]1)C(=O)N2
IC50 (MV4-11 [1]): 72 nM

Structure (SMILES): c1ccc(Nc2nccc(Nc3cc(C4CC4)[nH]n3)n2)cc1
IC50 (MV4-11 [1]): 230 nM | inhibition [9]: 74% | Activity [3]: Toxic | inhibition [10]: 76%

Structure (SMILES): CCC1=C(C)C2=C(c3ccc(OCC(=O)NCCNC(=O)c4c(C)[nH]c(/C=C5\C(=O)Nc6ccc(NC(=O)C(F)(F)F)cc65)c4C)cc3)c3c(C)c(CC)c(C)n3[B-](F)(F)[N+]2=C1C
inhibition [4]: 7% | inhibition [5]: 34% | Activity [6]: 18%

More lines, now with the values ahead:

IC50 (MV4-11 [1]): 787 nM
Structure (SMILES): C=CC(=O)Nc1cccc(Nc2nccc(Nc3cc(C4CC4)[nH]n3)n2)c1

IC50 (MV4-11 [1]): 489 nM
Structure (SMILES): CCS(=O)(=O)Nc1cccc(Nc2nccc(Nc3cc(C4CC4)[nH]n3)n2)c1

IC50 (MV4-11 [1]): 521 nM
Structure (SMILES): C=CC(=O)Nc1ccc(Nc2nccc(Nc3cc(C4CC4)[nH]n3)n2)cc1

IC50 (MV4-11 [1]): > 1 nM
Structure (SMILES): C#CC(=O)Nc1cccc(Nc2nccc(Nc3cc(C4CC4)[nH]n3)n2)c1

IC50 (MV4-11 [1]): 129 nM
Structure (SMILES): CCS(=O)(=O)Nc1ccc(Nc2nccc(Nc3cc(C4CC4)[nH]n3)n2)cc1

IC50 (MV4-11 [1]): > 1 nM
Structure (SMILES): CCC(=O)Nc1cccc(Nc2nccc(Nc3cc(C4CC4)[nH]n3)n2)c1

IC50 (MV4-11 [1]): 58 nM | IC50 (Jurkat): 298 nM | IC50 (THP-1): 514 nM
Structure (SMILES): C=CS(=O)(=O)Nc1ccc(Nc2nccc(Nc3cc(C4CC4)[nH]n3)n2)cc1

IC50 (MV4-11 [1]): > 1 nM
Structure (SMILES): CCC(=O)Nc1ccc(Nc2nccc(Nc3cc(C4CC4)[nH]n3)n2)cc1

IC50 (MV4-11 [1]): > 1 nM
Structure (SMILES): C#CC(=O)Nc1ccc(Nc2nccc(Nc3cc(C4CC4)[nH]n3)n2)cc1

IC50 (MV4-11 [1]): 175 nM
Structure (SMILES): O=C(CCl)Nc1cccc(Nc2nccc(Nc3cc(C4CC4)[nH]n3)n2)c1

IC50 (MV4-11 [1]): > 1 nM
Structure (SMILES): CC(=O)Nc1ccc(Nc2nccc(Nc3cc(C4CC4)[nH]n3)n2)cc1

IC50 (MV4-11 [1]): 141 nM
Structure (SMILES): O=C(CCl)Nc1ccc(Nc2nccc(Nc3cc(C4CC4)[nH]n3)n2)cc1

IC50 (MV4-11 [1]): 2.3 nM | IC50 (Jurkat): 44 nM | IC50 (THP-1): 172 nM
Structure (SMILES): C=CS(=O)(=O)Nc1cccc(Nc2nccc(Nc3cc(C4CC4)[nH]n3)n2)c1

IC50 (MV4-11 [1]): > 1 nM
Structure (SMILES): CC(=O)Nc1cccc(Nc2nccc(Nc3cc(C4CC4)[nH]n3)n2)c1
